Where two headings read alike, the source gives them in different places.
Columns and labels:
[1] = tested on: Staphylococcus aureus (ATCC 25923); experiment: Microbroth single-dose antimicrobial assay, susceptible S. aureus; format: cell-based; conditions: Staphylococcus aureus, ATCC25923; single dose 125 μg/mL; S. aureus ATCC 25923; value (SD)
Procedure: (§1) Microbroth single dose antimicrobial assays were performed against different pathogens including susceptible Staphylococcus aureus (ATCC 25923), Escherichia coli (ATCC 8739), and Candida albicans (ATCC 90027). Pathogens were treated with 125 μg/mL of tested compounds in duplicate.
(§2) The antimicrobial evaluation of the targeted compounds was carried out against five different pathogens including Staphylococcus aureus (susceptible, ATCC 25923; methicillin-resistant, ATCC BAA-41; multidrug-resistant, ATCC BAA-44), Escherichia coli ATCC 8739, and Candida albicans ATCC 90027. Reference antibiotics and final concentrations used as positive controls in these experiments were kanamycin (susceptible S. aureus, 50 μg), vancomycin (methicillin and multidrug-resistant S. aureus, 25 μg), ampicillin (E. coli, 50 μg), and amphotericin B (C. albicans, 25 μg). The final concentration of the tested compounds was 125 μg/mL for microbroth single-dose assays. Dimethyl sulfoxide was used at a final concentration of 0.1% as negative control. […] American type culture collection (ATCC, Manassas, VA, USA) has provided all microbial strains used in above experiments.
(§3) Antimicrobial Single-dose assay for compounds 7(a-n) against
(§4) S. aureus E. coli C. albicans
(§5) Figure S43: Graph showing results of antimicrobial single-dose microbroth assays of compounds 7a–n, dose of tested compounds = 125 μg/mL, control antibiotic s used: kanamycin = 50 μg/mL (Staphylococcus aureus ATCC 25923), ampicillin = 50 μg/mL (Escherichia coli ATCC 8739), and amphotericin B = 25 μg/mL (Candida albicans ATCC 90027). Dimethylsulfoxide ( DMSO) was used as the negative control at 1.25% […]
(§6) Table S1: Results of single-dose antimicrobial and cytotoxic assays for compounds 7a–n; dosage of tested compounds = 125 μg/mL; antibiotic control dosage (kanamycin = 50 μg/mL (Staphylococcus aureus ATCC 25923), ampicillin = 50 μg/mL (Escherichia coli ATCC 8739), and amphotericin B = 25 μg/mL (Candida albicans ATCC 90027).
(§7) For cytotoxic assays, dosage of tested compounds = 10 μM; dosage of mensacarcin […]
(§8) Percent survival / % Cell viability
(§9) Samples S. aureus E.coli (SD) C. albicans (SD) HCT-116 […]

[2] = target: human carbonic anhydrase CA IX (Homo sapiens, UniProt Q16790); experiment: hCA inhibition, stopped-flow CO2 hydration method, CA IX; conditions: mean from three assays, errors ±5–10%
Procedure: (§15) In vitro assessment of all targeted pyrazolobenzothiazine scaffolds for human carbonic anhydrase (hCA) inhibition was performed adopting a stopped-flow CO2 hydration method. The enzyme inhibition assays were carried out for four types of human CA isoforms: CA I, CA II, CA IX, and XII. […] Reason for the selection of these CA isoforms was to develop a comparative relationship for inhibition selectivity between CAs (IX, XII) attributed to tumour/cancer and other CAs (I, II). […] Analyses were carried out in-house using recombinant enzymes as described.

[3] = target: human carbonic anhydrase CA II (Homo sapiens, UniProt P00918); experiment: hCA inhibition, stopped-flow CO2 hydration method, CA II; conditions: mean from three assays, errors ±5–10%
Procedure: as §15

[4] = tested on: Candida albicans (ATCC 90027); experiment: Microbroth single-dose antimicrobial assay, C. albicans; format: cell-based; conditions: ATCC90027, single dose 125 μg/mL, C. albicans ATCC 90027, value (SD)
Procedure: as §1, §2, §3, §4, §5, §6, §7, §8, §9

[5] = Single-dose MTT cell viability assay; format: cell-based, human; conditions: human, HCT-116 cells (ATCC CCL-247), 48 h, 0.1% DMSO control = 100%, value (SD)
Procedure: (§10) Single-dose MTT assays were performed for compounds 7a–n against the human colon cancer mammalian cell line (HCT-116, ATCC CCL-247) for evaluating their inhibition of mammalian cell metabolism. Solutions of the tested compounds were prepared in DMSO and cancer cells were treated with 10 μM doses of compounds using the apoptosis inducing standard mensacarcin (10 μM) as a positive control.
(§11) Single-dose MTT assays were performed for compounds 7a–n with the human colon cancer mammalian cell line (HCT-116, ATCC CCL-247) for evaluating the compounds’ inhibitory effects on cell viability. Stock solutions of compounds were prepared in DMSO and cancer cells were treated with 10 μM doses of each compound and mensacarcin (10 μM) as a positive control. MTT in 1X PBS was added for a final concentration of 0.5 mg/mL 48 hours post compound addition to each well. Post incubation at 37 °C was carried out for 2 h. After the removal of the growth media, purple formazan metabolic product was dissolved in DMSO. A Biotek Synergy reader (96-well plate) was used to take absorbance of all samples at 550 nm. Cell viability was calculated as the ability of the metabolically active cells to reduce tetrazolium salt MTT [3-(4,5-dimethylthiazolyl-2)-2,5-diphenyltetrazolium bromide]. Control metabolic activity shown by cells treated with 0.1% DMSO was set to 100% cell growth. […]
as §7, §8, §9
(§12) HCT-116 (Human Colorn cancer cell line) Single -dose assay for […]
(§13) Figure S44: Graph showing cell viability of compounds 7a–n against human colon carcinoma cell line (HCT-116, ATCC CCL-247), dose of tested compounds = 10 μM, dose of positive control (mensacarcin) = 10 μM.

[6] = tested on: Escherichia coli (ATCC 8739); experiment: Microbroth single-dose antimicrobial assay, E. coli; format: cell-based; conditions: ATCC8739, single dose 125 μg/mL, E. coli ATCC 8739, value (SD)
Procedure: as §1, §2, §3, §4, §5, §6, §7, §8, §9

[7] = target: human carbonic anhydrase CA I (Homo sapiens, UniProt P00915); experiment: hCA inhibition, stopped-flow CO2 hydration method, CA I
Procedure: as §15

[8] = target: human carbonic anhydrase CA XII (Homo sapiens, UniProt O43570); experiment: hCA inhibition, stopped-flow CO2 hydration method, CA XII; conditions: mean from three assays, errors ±5–10%
Procedure: as §15

[9] = tested on: human colon cancer cell line HCT-116 (ATCC CCL-247); experiment: Single-dose MTT cell viability assay; format: cell-based; conditions: 10 μM
Procedure: as §10, §11, §7, §8, §9, §12, §13

[10] = tested on: susceptible S. aureus (ATCC 25923); experiment: Microbroth dilution assay (MIC90), susceptible S. aureus; format: cell-based, Staphylococcus aureus; conditions: 90% growth inhibition
Procedure: (§14) Microbroth dilution assays were performed for the determination of MIC (minimum inhibitory concentration, MIC90) values for compounds 7b and 7h against three different strains of Staphylococcus aureus: susceptible (ATCC 25923), methicillin-resistant (ATCC BAA-41), and multidrug-resistant (ATCC BAA-44).
as §2

[11] = tested on: methicillin-resistant S. aureus (ATCC BAA-41); experiment: Microbroth dilution assay (MIC90), methicillin-resistant S. aureus; format: cell-based, Staphylococcus aureus; conditions: Staphylococcus aureus, ATCC BAA-41 / MRSA, read-out: MIC90 MRSA
Procedure: as §14, §2

[12] = tested on: multidrug-resistant S. aureus (ATCC BAA-44); experiment: Microbroth dilution assay (MIC90), multidrug-resistant S. aureus; format: cell-based, Staphylococcus aureus; conditions: Staphylococcus aureus, ATCCBAA44, read-out: MIC90 MDRSA
Procedure: as §14, §2

[13] = read-out: Ki for targeted CAs, IX
[14] = read-out: Ki for targeted CAs, II
[15] = read-out: Ki for targeted CAs, I, mean from three assays, errors ±5–10%
[16] = read-out: Ki for targeted CAs, XII

human carbonic anhydrase CA I, sequence (P00915 whole entry): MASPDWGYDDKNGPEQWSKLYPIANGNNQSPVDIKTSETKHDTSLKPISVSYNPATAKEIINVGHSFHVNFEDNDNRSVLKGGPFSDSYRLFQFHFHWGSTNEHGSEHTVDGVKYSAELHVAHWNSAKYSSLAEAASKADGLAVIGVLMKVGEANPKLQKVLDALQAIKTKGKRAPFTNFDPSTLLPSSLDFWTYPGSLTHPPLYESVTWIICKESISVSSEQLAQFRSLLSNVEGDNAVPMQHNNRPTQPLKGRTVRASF
human carbonic anhydrase CA XII, sequence (O43570 25-354): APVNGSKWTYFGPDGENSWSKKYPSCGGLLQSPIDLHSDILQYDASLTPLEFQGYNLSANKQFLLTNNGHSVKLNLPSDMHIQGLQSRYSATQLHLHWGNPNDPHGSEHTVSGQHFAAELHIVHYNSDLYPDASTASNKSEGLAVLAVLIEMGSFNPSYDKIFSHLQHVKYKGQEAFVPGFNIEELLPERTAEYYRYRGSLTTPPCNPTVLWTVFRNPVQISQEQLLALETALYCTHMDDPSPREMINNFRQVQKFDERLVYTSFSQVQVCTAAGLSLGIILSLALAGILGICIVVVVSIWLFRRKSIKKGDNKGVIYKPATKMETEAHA

SMILES: COc1ccc(NC(=O)COc2nn(CC(=O)Nc3ccc(OC)cc3)c3c2N(C)S(=O)(=O)c2ccccc2-3)cc1 [Compound 7j]
- percent survival of S. aureus at 125 µg/mL [1]: > 100%
- Ki ([2]; Ki for targeted CAs, IX): > 100 µM
- Ki ([3]; Ki for targeted CAs, II): > 100 µM
- percent survival at 125 µg/mL [4]: 99.5%
- viability at 48 h, 10 µM [5]: > 100%
- percent survival at 125 µg/mL [6]: > 100%
- Ki [7]: > 100 µM
- Ki ([8]; Ki for targeted CAs, XII): > 100 µM

SMILES: Cc1cccc(NC(=O)COc2nn(CC(=O)Nc3cccc(C)c3C)c3c2N(C)S(=O)(=O)c2ccccc2-3)c1C [Compound 7k]
- percent survival of S. aureus at 125 µg/mL [1]: > 100%
- Ki ([2]; Ki for targeted CAs, IX): > 100 µM
- Ki ([3]; Ki for targeted CAs, II): > 100 µM
- percent survival at 125 µg/mL [4]: > 100%
- viability at 48 h, 10 µM [5]: 90.7%
- percent survival at 125 µg/mL [6]: 94.2%
- Ki [7]: > 100 µM
- Ki ([8]; Ki for targeted CAs, XII): > 100 µM

SMILES: Cc1ccccc1NC(=O)COc1nn(CC(=O)Nc2ccccc2C)c2c1N(C)S(=O)(=O)c1ccccc1-2 [Compound 7l]
- Ki [2, 13]: > 100 µM
- Ki [3, 14]: > 100 µM
- effect on HCT-116 cell viability (in words) [9]: inhibited cell viability
- Ki [7, 15]: > 100 µM
- Ki [8, 16]: > 100 µM

SMILES: Cc1ccc(NC(=O)COc2nn(CC(=O)Nc3ccc(C)cc3)c3c2N(C)S(=O)(=O)c2ccccc2-3)cc1 [Compound 7m]
- Ki [2, 13]: > 100 µM
- Ki [3, 14]: > 100 µM
- Ki [7, 15]: > 100 µM
- Ki [8, 16]: > 100 µM

SMILES: CN1c2c(OCC(=O)NC3CCCCC3)nn(CC(=O)NC3CCCCC3)c2-c2ccccc2S1(=O)=O [Compound 7n]
- Ki [2, 13]: > 100 µM
- Ki [3, 14]: > 100 µM
- Ki [7, 15]: > 100 µM
- Ki [8, 16]: > 100 µM

SMILES: NC[C@H]1O[C@H](O[C@H]2[C@H](O)[C@@H](O[C@H]3O[C@H](CO)[C@@H](O)[C@H](N)[C@H]3O)[C@H](N)C[C@@H]2N)[C@H](O)[C@@H](O)[C@@H]1O [Kanamycin, kanamycin, reference compound]
- MIC90 SA [10]: <1 µg/mL

SMILES: CN[C@H](CC(C)C)C(=O)N[C@H]1C(=O)N[C@@H](CC(N)=O)C(=O)N[C@H]2C(=O)N[C@H]3C(=O)N[C@H](C(=O)N[C@H](C(=O)O)c4cc(O)cc(O)c4-c4cc3ccc4O)[C@H](O)c3ccc(c(Cl)c3)Oc3cc2cc(c3O[C@@H]2O[C@H](CO)[C@@H](O)[C@H](O)[C@H]2O[C@H]2C[C@](C)(N)[C@H](O)[C@H](C)O2)Oc2ccc(cc2Cl)[C@H]1O [vancomycin, reference compound]
- MIC90 [11]: < 1 µg/mL
- MIC90 [12]: < 1 µg/mL
